According to patent publication US8614342B2, “Process for preparing epoxycarboxylic esters” (BASF SE, priority 2012, dated 2013):

Settings: 20° C.

COC(=O)C1CO1 (stereo not shown) [MEP, Methyl Epoxy Propionate]
solubility of MEP in water: 43 g/10 g of H2O
